# Source: patent US20090186361A1, “METHODS OF PREDICTING THE PHARMACEUTICAL TOXICITY OF TAXANES” (priority 2008, published 2009)
# What was measured:
# [1] = Toxicity Index (TI) computed from graded treatment-attributable adverse events (NCI CTC) of recipient subjects, per treatment cycle; assay type: in vivo, human; set-up: key to Toxicity Index TI9 Mean / Toxicity Index TI12 Mean / Toxicity Index TI13 Mean / Toxicity Index TI16 Mean / Toxicity Index TI17 Mean / Toxicity Index TI19 Mean / Toxicity Index TI1 Mean / Toxicity Index TI2 Mean / Toxicity Index TI4 Mean: weighted sum of ordered recoded CTC grades; ≥3 = DLT; details: mean over recipient subjects; for Toxicity Index TI1 Mean: cycle 1, score between 0 and 5; for Toxicity Index TI2 Mean: cycle 2; for Toxicity Index TI3 Mean: cycle 3; for Toxicity Index TI4 Mean: cycle 4; for Toxicity Index TI5 Mean: cycle 5; for Toxicity Index TI6 Mean: cycle 6; for Toxicity Index TI7 Mean: cycle 7; for Toxicity Index TI8 Mean: cycle 8; for Toxicity Index TI9 Mean: cycle 9; for Toxicity Index TI10 Mean: cycle 10; for Toxicity Index TI11 Mean: cycle 11; for Toxicity Index TI12 Mean: cycle 12; for Toxicity Index TI13 Mean: cycle 13; for Toxicity Index TI14 Mean: cycle 14; for Toxicity Index TI15 Mean: cycle 15; for Toxicity Index TI16 Mean: cycle 16; for Toxicity Index TI17 Mean: cycle 17; for Toxicity Index TI18 Mean: cycle 18; for Toxicity Index TI19 Mean: cycle 19; for Toxicity Index TI20 Mean: cycle 20; for Toxicity Index TI21 Mean: cycle 21
# From the text: Recipient subject-specific characteristics, medical and treatment histories, doses of experimental agents, and graded toxicities were extracted from case report forms. Toxicity data were represented for each subject as a set of treatment-attributable adverse events, each graded (0, 1, 2, 3, or 4) according to NCI Common Toxicity Criteria (CTC). The term “toxicity profile” as used herein refers to the collection of graded toxicities observed for an individual recipient subject.
# To include all trials in the same analysis, a common definition of dose limiting toxicity (DLT) was adopted. Specifically, DLT was defined as occurring whenever any one of the following was observed: grade 4 hematological toxicity (grade 4 neutropenia or thrombocytopenia of any duration); a grade 3 or 4 non-hematological toxicity (excluding nausea, vomiting, and alopecia); febrile neutropenia of any grade.
# To identify risk factors and other pre-trial characteristics of interest, several ways of summarizing the toxicity profile of a given recipient subject into a single measure of overall severity were examined as described, for example in Rogatko et al., (2004) Clin. Cancer Res. 10:4645-4651, incorporated herein by reference in its entirety. A summary measure that takes into account all observed toxicity grades rather than just the most severe one was used. The summary measure, the Toxicity Index (TI), is computed according to the following algorithm: • (a) recode each hematologic toxicity as the maximum of 0 and the observed grade minus one (so that a grade 3 toxicity is dose limiting irrespective of whether or not it is hematologic). • (b) Let the toxicity grades in a subject's recoded toxicity profile be represented in descending order by the sequence X1≧X2≧ . . . ≧Xn • (c) Calculate the subject's TI score as the weighted sum of the ordered toxicity grades:
# Any score greater than or equal to 3 corresponds to a DLT according to the definition given above, and the maximum toxicity grade is the integer part of the final score. […] All toxicity grades are taken into account, though lower grades will contribute less to the final score.
# The score is a number between 0 and 5.
# Thirty (30) recipient subjects already receiving treatment with paclitaxel were screened for the presence of SNPs in the CYP2C8 and TUBB loci. Clinical data from each of the recipient subjects was used to first calculate a Toxicity Index (TI) value for each individual according to the method presented in Example 1, above. The genotype for each recipient subject with regard to the SNPs of CYP2C8 and TUBB was determined using SNPWARE™ and single base extension according to the methods of Example 4, above.
# (§1) A preliminary data analysis focused on the relationship between the Toxicity Index and the recipient subjects' demographic/genetic information. […] Univariate linear regression analysis was conducted first to find significant covariates in predicting the Toxicity Index in one of five cycles, then multivariable analysis was used to determine the best model in fitting the data. A mixed model for repeated measurement was implemented in modeling Toxicity Index in the first five cycles, and also in all cycles. Autoregressive covariance structure was used in the mixed model. SAS and Minitab were used in the analysis.
# [2] = Regression / mixed model of Toxicity Index on demographic variables and received dose; assay type: in vivo, human
# Method: as §1
# Covariates in the analysis included recoded binary demographic variables (sex, race, site, grade, stage) and recoded binary genetic variables.
# Multivariable regression analysis was used to find the best model in predicting the Toxicity Index in each of the first five cycles.
# A mixed model for repeated measurements was implemented to find the best model in fitting the longitudinal data. Autoregressive covariance structure was used in the mixed model. Toxicity Indexes in the first five cycles were included in the analysis.
# To model Toxicity Indexes in all 21 cycles, a mixed model was used to find the best model. For the paclitaxel, Received dose and MAPT_H14 were significant fixed effects in predicting the longitudinal Toxicity Index in all cycles.
SMILES,Toxicity Index TI1 Mean [1],Toxicity Index TI2 Mean [1],Toxicity Index TI3 Mean [1],Toxicity Index TI4 Mean [1],Toxicity Index TI5 Mean [1],Toxicity Index TI6 Mean [1],Toxicity Index TI7 Mean [1],Toxicity Index TI8 Mean [1],Toxicity Index TI9 Mean [1],Toxicity Index TI10 Mean [1],Toxicity Index TI11 Mean [1],Toxicity Index TI12 Mean [1],Toxicity Index TI13 Mean [1],Toxicity Index TI14 Mean [1],Toxicity Index TI15 Mean [1],Toxicity Index TI16 Mean [1],Toxicity Index TI17 Mean [1],Toxicity Index TI18 Mean [1],Toxicity Index TI19 Mean [1],Toxicity Index TI20 Mean [1],other results
"CC(=O)O[C@@]12CO[C@@H]1C[C@H](O)[C@@]1(C)C(=O)[C@H](O)C3=C(C)[C@@H](OC(=O)[C@H](O)[C@@H](NC(=O)OC(C)(C)C)c4ccccc4)C[C@@](O)([C@@H](OC(=O)c4ccccc4)[C@H]21)C3(C)C (relative stereo) [Docetaxel, Benzenepropanoic acid, β-(((1,1-dimethylethoxy)carbonyl)amino)-α-hydroxy-, 12b-(acetyloxy)-12-(benzoyloxy)-2a,3,4,4a,5,6,9,10,11,12,12a,12b-dodecahydro-4,6,11-trihydroxy-4a,8,13,13-tetramethyl-5-oxo-7,11-methano-1H-cyclodeca(3,4)benz(1,2-b)oxet-9-yl ester trihydrate, (2aR-(2aα,4β,4aβ,6β,9(αR*,βS),11α,12α,12aα,12bα))-]",2.727,2.840,2.737,3.058,2.669,2.875,2.646,2.804,2.438,2.623,2.297,2.090,2.404,2.171,2.083,1.875,1.875,1.875,2.625,1.875,"Toxicity Index TI21 Mean [1]: 1.875; Fixed effect Estimate, Grade 2 ([2]; mixed model, longitudinal Toxicity Index in all cycles, Pr > |t| 0.0027): −0.9840; Fixed effect Estimate, Grade 2 ([2]; mixed model, longitudinal Toxicity Index in first five cycles, Pr > |t| 0.0106): −1.0426; Para. Est., TI3 vs Site (multivariable) ([2]; multivariable regression with MAPT_H13, cycle 3, Prostate Gland = 1, Others = 0, P-value 0.001): 2.365; Para. Est., TI3 vs Grade ([2]; univariate linear regression, cycle 3, Poorly Dif = 1, Others = 0, P-value 0.006): −1.609; Para. Est., TI3 vs Site ([2]; univariate linear regression, cycle 3, Prostate Gland = 1, Others = 0, P-value 0.046): 1.962"
"CC(=O)O[C@H]1C(=O)[C@@]2(C)[C@H]([C@H](OC(=O)c3ccccc3)[C@]3(O)C[C@H](OC(=O)[C@H](O)[C@@H](NC(=O)c4ccccc4)c4ccccc4)C(C)=C1C3(C)C)[C@]1(OC(C)=O)CO[C@@H]1C[C@@H]2O [Paclitaxel, (2aR,4S,4aS,6R,9S,11S,12S,12aR,12bS)-1,2a,3,4,4a,6,9,10,11,12,12a,12b-Dodecahydro-4,6,9,11,12,12b-hexahydroxy-4a,8,13,13-tetramethyl-7,11-methano-5H-cyclodeca(3,4)benz(1,2-b)oxet-5-one 6,12b-diacetate, 12-benzoate, 9-ester with (2R,3S)-N-benzoyl-3-phenylisoserine]",2.175,2.399,2.491,2.787,2.696,2.580,2.529,2.206,2.292,1.875,2.583,1.750,1.875,1.875,1.875,2.583,2.583,2.583,2.583,2.944,"Toxicity Index TI21 Mean [1]: 3.469; Fixed effect Estimate, Received Dose2 ([2]; mixed model, longitudinal Toxicity Index in all 21 cycles, Pr > |t| 0.0244): 0.002363"
